ChEMBL document CHEMBL1201862, “PubChem BioAssay data set” (2004)
Calls of active or inactive are those of the source.

How the values were obtained:
Cytochrome P450 2D6 = Cytochrome P450 2D6 (Homo sapiens, UniProt P10635);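 note: CYP2D6 member of a cytochrome P450 panel assay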
CAAX prenyl protease 2 = CAAX prenyl protease 2 (Saccharomyces cerevisiae S288c, UniProt Q03530); assay: yeast Rce1 CaaX protease inhibitors, dose response, biochemical, plate reader, dry powder retest (AID 588851)
[1] = (§1) Counterscreen for antagonists of the orexin 1 receptor (OX1R; HCRTR1): Fluorescence-based cell-based high throughput dose response assay to identify antagonists of the parental CHO cell line. [Related pubchem assays (depositor defined):AID434989, AID435008, AID463079, AID485270, AID492963, AID492964, AID492965, AID493232, AID504699, AID504701]; type: functional
[2] = molecular target: T1, Orexin/Hypocretin receptor type 1 (Homo sapiens, UniProt O43613); assay: Homogeneous Time Resolved Fluorescence (HTRF)-based cell-based high throughput dose response assay for antagonists of the orexin 1 receptor (OX1R; HCRTR1). [Related pubchem assays (depositor defined):AID434989, AID435008, AID463079, AID485270, AID492963, AID492964, AID492965, AID493232, AID504717, AID504718]; type: functional
T1 sequence (O43613 whole entry): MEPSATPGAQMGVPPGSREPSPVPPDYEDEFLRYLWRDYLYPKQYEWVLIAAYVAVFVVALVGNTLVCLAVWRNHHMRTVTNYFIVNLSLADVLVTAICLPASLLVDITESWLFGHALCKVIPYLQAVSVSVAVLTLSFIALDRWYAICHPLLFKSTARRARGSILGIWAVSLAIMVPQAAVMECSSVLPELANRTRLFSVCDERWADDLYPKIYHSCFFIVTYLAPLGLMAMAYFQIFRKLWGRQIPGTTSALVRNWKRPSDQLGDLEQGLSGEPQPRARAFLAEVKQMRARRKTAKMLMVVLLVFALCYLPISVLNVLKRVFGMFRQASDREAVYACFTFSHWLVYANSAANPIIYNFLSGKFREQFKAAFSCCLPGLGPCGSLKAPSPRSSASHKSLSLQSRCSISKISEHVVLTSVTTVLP

Orexin receptor type 2 [3] = molecular target: T2, Orexin receptor type 2 (Homo sapiens, UniProt O43614); assay: Counterscreen assay for antagonists of the orexin 1 receptor (OX1R; HCRTR1): Homogeneous Time Resolved Fluorescence (HTRF)-based cell-based dose response assay for antagonists of the orexin 2 receptor (OX2R; HCRTR2), run by assay provider.; type: functional
T2 sequence (O43614 whole entry): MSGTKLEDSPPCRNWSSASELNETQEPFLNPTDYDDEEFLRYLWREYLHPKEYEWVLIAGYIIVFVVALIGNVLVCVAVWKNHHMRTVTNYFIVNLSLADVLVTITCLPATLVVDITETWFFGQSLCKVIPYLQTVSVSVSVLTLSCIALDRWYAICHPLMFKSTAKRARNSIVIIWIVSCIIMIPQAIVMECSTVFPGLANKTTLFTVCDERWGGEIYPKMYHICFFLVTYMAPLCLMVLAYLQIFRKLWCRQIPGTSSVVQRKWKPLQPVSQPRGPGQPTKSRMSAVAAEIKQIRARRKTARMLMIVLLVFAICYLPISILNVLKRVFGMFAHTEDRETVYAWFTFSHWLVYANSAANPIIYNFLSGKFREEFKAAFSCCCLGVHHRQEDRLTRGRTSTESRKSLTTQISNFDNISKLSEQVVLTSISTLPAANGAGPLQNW

Orexin receptor type 2 [4] = molecular target: T2, Orexin receptor type 2; assay: Counterscreen assay for antagonists of the orexin 1 receptor (OX1R; HCRTR1): Fluorescence-based cell-based dose response assay for antagonists of the orexin 2 receptor (OX2R; HCRTR2), run by assay provider.; type: functional
CHO-K1 = assay: as §1, with “Homogeneous time resolved fluorescence (HTRF)-based” for “Fluorescence-based”, “cell-based” for “cell-based high throughput”, “CHO-K1” for “CHO”; type: functional; settings: Cricetulus griseus;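 note: potency for inhibition of ATP-stimulated IP1 production as antagonists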
[5] = molecular target: T1, Orexin/Hypocretin receptor type 1; assay: Fluorescence-based cell-based high throughput dose response assay for antagonists of the orexin 1 receptor (OX1R; HCRTR1). [Related pubchem assays (depositor defined):AID434989, AID435008, AID463079, AID485270, AID492963, AID492964, AID492965, AID493232, AID504717, AID504718]; type: functional
NIH3T3 = assay: cytotoxicity in NIH-3T3 fibroblasts, dose response, cytotoxicity control for antifungal drug resistance project, cell-based, Alamar Blue, fluconazole, dry powder (AID 488809); type: functional; settings: Mus musculus
Candida albicans = assay: single-agent growth inhibition of C. albicans, dose response, counter-screen for antifungal drug resistance project, C. albicans CaCi-2, dry powder (AID 488802); type: functional, organism-based
[6] = molecular target: T3, Sentrin-specific protease 8 (Homo sapiens, UniProt Q96LD8); assay: SENP8 protease inhibitors, SAR follow-up, biochemical, luminescence, set 2 (AID 588601); type: functional
T3 sequence (Q96LD8 whole entry): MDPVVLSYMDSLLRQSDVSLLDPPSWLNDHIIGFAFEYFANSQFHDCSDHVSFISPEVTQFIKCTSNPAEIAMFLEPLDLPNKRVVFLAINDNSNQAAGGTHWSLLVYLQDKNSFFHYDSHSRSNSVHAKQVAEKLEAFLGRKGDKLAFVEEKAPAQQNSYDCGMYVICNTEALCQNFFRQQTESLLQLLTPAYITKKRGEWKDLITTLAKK

[7] = molecular target: T3, Sentrin-specific protease 8; assay: SENP8 protease inhibitors, SAR follow-up, biochemical, luminescence (AID 504501); type: functional
Protein skinhead-1 = molecular target: T4, Protein skinhead-1 (Caenorhabditis elegans, UniProt P34707); type: functional
T4 sequence (P34707 whole entry): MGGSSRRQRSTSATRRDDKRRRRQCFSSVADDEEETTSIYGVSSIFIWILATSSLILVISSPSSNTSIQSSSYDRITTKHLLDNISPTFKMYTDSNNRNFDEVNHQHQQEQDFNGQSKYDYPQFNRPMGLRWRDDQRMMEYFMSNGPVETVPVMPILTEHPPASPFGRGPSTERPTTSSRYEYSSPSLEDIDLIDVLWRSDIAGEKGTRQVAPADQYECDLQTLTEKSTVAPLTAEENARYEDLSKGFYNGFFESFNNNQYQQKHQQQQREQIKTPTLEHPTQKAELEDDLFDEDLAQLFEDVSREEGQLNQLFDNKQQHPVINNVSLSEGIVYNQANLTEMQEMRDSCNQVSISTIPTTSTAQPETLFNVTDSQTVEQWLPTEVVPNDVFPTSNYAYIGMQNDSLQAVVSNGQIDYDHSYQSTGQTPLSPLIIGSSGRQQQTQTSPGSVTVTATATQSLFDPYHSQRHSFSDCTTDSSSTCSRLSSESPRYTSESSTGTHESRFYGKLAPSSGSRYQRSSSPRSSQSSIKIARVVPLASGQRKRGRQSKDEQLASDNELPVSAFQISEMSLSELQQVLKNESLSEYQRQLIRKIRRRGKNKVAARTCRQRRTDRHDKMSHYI

[8] = molecular target: T5, Sentrin-specific protease 7 (Homo sapiens, UniProt Q9BQF6); assay: SENP7 protease inhibitors, SAR follow-up, biochemical, luminescence, set 2 (AID 588600); type: functional
T5 sequence (Q9BQF6 whole entry): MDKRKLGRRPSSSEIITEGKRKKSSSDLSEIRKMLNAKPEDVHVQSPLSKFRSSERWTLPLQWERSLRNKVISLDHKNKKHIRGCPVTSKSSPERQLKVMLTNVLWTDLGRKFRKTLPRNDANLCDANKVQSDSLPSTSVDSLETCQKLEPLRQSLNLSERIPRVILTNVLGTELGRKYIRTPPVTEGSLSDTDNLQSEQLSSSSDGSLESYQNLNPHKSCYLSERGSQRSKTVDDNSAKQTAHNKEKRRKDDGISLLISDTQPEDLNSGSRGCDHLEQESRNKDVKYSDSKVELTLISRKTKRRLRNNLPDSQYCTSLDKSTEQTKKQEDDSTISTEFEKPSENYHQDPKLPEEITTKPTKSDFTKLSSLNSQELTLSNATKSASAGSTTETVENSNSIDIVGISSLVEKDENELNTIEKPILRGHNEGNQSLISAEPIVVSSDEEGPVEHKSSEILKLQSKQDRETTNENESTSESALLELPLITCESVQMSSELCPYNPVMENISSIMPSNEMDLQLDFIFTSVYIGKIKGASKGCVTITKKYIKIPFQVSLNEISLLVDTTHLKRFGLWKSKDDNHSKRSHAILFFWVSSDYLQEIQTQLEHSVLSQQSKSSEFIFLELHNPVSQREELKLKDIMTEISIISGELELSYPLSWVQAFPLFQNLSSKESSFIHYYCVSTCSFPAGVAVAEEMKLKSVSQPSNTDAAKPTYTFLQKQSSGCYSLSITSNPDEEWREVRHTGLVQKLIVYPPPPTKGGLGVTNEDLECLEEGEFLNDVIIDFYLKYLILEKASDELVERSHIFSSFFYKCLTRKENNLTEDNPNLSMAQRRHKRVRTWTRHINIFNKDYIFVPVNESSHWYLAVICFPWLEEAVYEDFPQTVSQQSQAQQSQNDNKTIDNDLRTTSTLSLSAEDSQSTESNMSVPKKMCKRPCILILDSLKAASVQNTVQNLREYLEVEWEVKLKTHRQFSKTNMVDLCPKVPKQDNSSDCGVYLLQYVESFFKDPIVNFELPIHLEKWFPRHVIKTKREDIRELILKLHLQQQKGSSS

[9] = molecular target: T5, Sentrin-specific protease 7; assay: SENP7 protease inhibitors, SAR follow-up, biochemical, luminescence (AID 504497); type: functional
Caspase-3 [10] = molecular target: T6, Caspase-3 (Homo sapiens, UniProt P42574); assay: SAR Analysis of small molecule inhibitors of Sentrin-specific proteases (SENPs) using a Caspase-3 Selectivity assay. [Related pubchem assays (depositor defined):AID2540, AID2599, AID434973, AID489001]; type: functional
T6 sequence (P42574 whole entry): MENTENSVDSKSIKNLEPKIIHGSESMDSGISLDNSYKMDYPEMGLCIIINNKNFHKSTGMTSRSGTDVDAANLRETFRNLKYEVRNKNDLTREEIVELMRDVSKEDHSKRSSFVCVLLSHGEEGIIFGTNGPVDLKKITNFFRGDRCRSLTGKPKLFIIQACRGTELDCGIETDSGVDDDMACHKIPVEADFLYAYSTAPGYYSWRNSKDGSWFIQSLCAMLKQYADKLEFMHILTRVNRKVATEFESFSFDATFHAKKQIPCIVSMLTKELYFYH

Caspase-3 [11] = molecular target: T6, Caspase-3; assay: caspase-3 inhibitors as off-family protease, SAR follow-up, selectivity assay for SENP protease inhibitor project, biochemical, luminescence, set 2 (AID 588599); type: functional
[12] = molecular target: T7, Sentrin-specific protease 6 (Homo sapiens, UniProt Q9GZR1); assay: SAR Analysis of small molecule inhibitors of Sentrin-specific protease 6 (SENP6) using a Luminescent assay. [Related pubchem assays (depositor defined):AID2582, AID2599]; type: functional
T7 sequence (Q9GZR1 whole entry): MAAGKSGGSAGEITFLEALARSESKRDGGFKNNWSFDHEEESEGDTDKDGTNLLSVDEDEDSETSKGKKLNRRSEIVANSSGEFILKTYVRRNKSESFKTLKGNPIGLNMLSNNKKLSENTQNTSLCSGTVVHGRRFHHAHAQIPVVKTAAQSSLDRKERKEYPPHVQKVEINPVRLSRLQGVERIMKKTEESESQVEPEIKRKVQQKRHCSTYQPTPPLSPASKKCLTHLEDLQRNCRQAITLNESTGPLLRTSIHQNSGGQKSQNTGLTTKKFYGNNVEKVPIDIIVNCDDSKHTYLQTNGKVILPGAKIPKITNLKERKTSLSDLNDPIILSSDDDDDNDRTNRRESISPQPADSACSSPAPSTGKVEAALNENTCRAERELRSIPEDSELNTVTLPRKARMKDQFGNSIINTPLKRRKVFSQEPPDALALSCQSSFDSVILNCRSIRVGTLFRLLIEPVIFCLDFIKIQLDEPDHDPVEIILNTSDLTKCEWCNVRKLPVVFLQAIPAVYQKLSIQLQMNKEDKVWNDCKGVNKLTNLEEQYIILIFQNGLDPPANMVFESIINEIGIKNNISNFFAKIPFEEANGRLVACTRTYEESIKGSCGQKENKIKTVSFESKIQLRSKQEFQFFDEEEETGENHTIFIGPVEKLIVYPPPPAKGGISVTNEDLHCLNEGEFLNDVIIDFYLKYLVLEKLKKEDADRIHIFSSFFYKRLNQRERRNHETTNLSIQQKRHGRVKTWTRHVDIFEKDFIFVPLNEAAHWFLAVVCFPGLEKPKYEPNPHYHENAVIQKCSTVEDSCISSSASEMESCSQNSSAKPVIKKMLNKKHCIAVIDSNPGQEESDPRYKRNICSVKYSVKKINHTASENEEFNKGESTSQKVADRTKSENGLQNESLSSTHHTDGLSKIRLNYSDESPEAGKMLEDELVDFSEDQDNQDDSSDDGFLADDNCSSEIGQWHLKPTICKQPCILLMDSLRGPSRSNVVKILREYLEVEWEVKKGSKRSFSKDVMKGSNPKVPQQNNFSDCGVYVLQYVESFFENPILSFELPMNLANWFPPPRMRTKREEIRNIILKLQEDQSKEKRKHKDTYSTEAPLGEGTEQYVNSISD

[13] = molecular target: T7, Sentrin-specific protease 6; assay: SENP6 protease inhibitors, SAR follow-up, biochemical, luminescence, set 2 (AID 588598); type: functional

Sequence of CAAX prenyl protease 2 (Q03530 whole entry): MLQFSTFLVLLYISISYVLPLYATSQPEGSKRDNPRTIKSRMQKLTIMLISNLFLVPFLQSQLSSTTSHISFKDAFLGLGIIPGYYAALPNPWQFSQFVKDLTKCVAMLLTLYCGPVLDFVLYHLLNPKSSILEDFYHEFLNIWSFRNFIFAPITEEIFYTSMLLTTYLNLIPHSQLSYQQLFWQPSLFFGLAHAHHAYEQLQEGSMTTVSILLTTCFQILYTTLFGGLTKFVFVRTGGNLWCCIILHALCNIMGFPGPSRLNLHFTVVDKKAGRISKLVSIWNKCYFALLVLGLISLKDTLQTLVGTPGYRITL
Sequence of Cytochrome P450 2D6 (P10635 whole entry): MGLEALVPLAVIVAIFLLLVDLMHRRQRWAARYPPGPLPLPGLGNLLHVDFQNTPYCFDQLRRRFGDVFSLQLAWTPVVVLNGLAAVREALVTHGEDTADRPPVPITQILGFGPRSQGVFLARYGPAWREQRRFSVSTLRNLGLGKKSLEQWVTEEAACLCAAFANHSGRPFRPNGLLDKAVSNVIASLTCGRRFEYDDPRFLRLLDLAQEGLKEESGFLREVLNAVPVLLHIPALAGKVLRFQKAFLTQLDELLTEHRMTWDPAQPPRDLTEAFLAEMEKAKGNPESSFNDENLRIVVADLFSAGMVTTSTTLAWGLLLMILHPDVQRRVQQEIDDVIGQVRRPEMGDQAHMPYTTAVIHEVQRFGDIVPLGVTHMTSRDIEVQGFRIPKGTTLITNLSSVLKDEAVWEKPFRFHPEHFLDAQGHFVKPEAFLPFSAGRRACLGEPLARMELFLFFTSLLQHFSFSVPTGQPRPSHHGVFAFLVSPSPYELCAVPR

SMILES: Cc1ccc(NC(=O)CCc2ccc(S(=O)(=O)NC3CCCCC3)cc2)cc1
- AC50 (Cytochrome P450 2D6): 11.2 µM (inconclusive)
- AC50 (CAAX prenyl protease 2): 11 µM (active)

SMILES: Cc1nn(C)c(C)c1/N=C/c1c(O)ccc2ccccc12
- IC50 [1]: > 49.8 µM (inactive)
- IC50 [2]: 3.76 µM (active)
- IC50 (Orexin receptor type 2 [3]): > 50 µM (inactive)
- IC50 (Orexin receptor type 2 [4]): > 88.8 µM (inactive)
- IC50 (CHO-K1): > 66.2 µM (inactive)
- IC50 [5]: 31.2 µM (inactive)

SMILES: CC1CCN(C(=O)Cn2c3ccccc3c3nc4n(c(=O)c32)CCCS4)CC1
- AC50 (NIH3T3): > 260 µM (inactive)
- AC50 (Candida albicans): 122 µM (active)

SMILES: C(=C\c1nc(-c2cccnc2)no1)/c1ccccc1
- IC50 [6]: 9.69 µM (active)
- IC50 [7]: 23 µM (active)
- IC50 (Protein skinhead-1): 49 µM (active)
- IC50 [8]: 8.26 µM (active)
- IC50 [9]: 5.3 µM (active)
- IC50 (Caspase-3 [10]): 6.2 µM (active)
- IC50 (Caspase-3 [11]): 9.23 µM (active)
- IC50 [12]: 21 µM (active)
- IC50 [13]: 8.23 µM (active)
